Earlier results in patent publication US20130030007A1, “Obesity Small Molecules” (AKRON MOLECULES GMBH, priority 2010, published 2013).
Where a name gives a salt, the structure may show the parent alone. Read-outs that look alike come from different tables or passages of the source. Residues, ends and D or L forms follow the SMILES beside them. *: point of attachment. Cbz = O=C(OCc1ccccc1)*

Test system: human ortholog of Drosophila obesity gene
Parameters: key: O: Obesity - obesity pathway interaction; B: validated binding partner
Conditions: cited from earlier work
[1] = interaction of the small molecule with the human ortholog(s) / Drosophila gene(s) listed in the same table line

## CC[C@@]1([C@@H]2O[C@@H]([C@H]3O[C@@](O)(CO)[C@H](C)C[C@@H]3C)C[C@@H]2C)CC[C@H]([C@]2(C)CC[C@]3(C[C@H](O)[C@@H](C)[C@@H]([C@@H](C)[C@@H](OC)[C@H](C)C(=O)O)O3)O2)O1 [Monensin]
[1]
  Type: Type of interaction: O

## C[C@@H]1C[C@H]2O[C@@H]2/C=C\C=C\C(=O)Cc2c(Cl)c(O)cc(O)c2C(=O)O1 [Monorden]
  Type: Type of interaction: B

## C/C=C1/C(=O)N[C@@H](C(=O)O)[C@H](C)C(=O)N[C@@H](C(C)C)C(=O)N[C@@H](/C=C/C(C)=C/[C@H](C)[C@H](Cc2ccccc2)OC)[C@H](C)C(=O)N[C@@H](C(=O)O)CCC(=O)N1C [Motuporin]
  Type: Type of interaction: O

## Cn1cnc([N+](=O)[O-])c1Sc1ncnc2nc[nH]c12 [Muran]
  Type: Type of interaction: O

## C[C@@H]1O[C@H](C[N+](C)(C)C)C[C@H]1O [Muscarine]
  Type: Type of interaction: B

## O=C(Nc1cc2ccccc2cn1)c1ccccc1NCc1ccncc1 [N-3-isoquinolinyl-2-((4-pyridinylmethyl)amino)benzamide]
[1]
  Type: Type of interaction: O

## Nc1ccc(CCN2CN(c3ccccc3)C3(CCN(CCCC(=O)c4ccc(F)cc4)CC3)C2=O)cc1 [N-(4-aminophenethyl)spiroperidol]
  Type: Type of interaction: B

## Nc1ccc(N2C(=O)C=CC2=O)cc1 [N-(4-aminophenyl)maleimide]
[1]
  Type: Type of interaction: O

## N#Cc1cccc2sc(C(=O)NC(=N)N)cc12 [N-(4-cyano-benzo (b)thiophene-2-carbonyl)guanidine]
[1]
  Type: Type of interaction: O

## C[C@H](NC(CCCCCCCN)C(=O)O)C(=O)N1CCC[C@H]1C(=O)O (some centres unmarked) [N-(8-amino-1-carboxyoctyl)-alanyl-proline]
[1]
  Type: Type of interaction: O

## O=C[C@@H]1CCCN1C(=O)[C@@H]1CCCN1C(=O)OCc1ccccc1 [N-benzyloxycarbonylprolyl-prolinal] (Cbz-Pro-Pro-aldehyde)
[1]
  Type: Type of interaction: O

## CC(NC(N)=O)c1cc2ccccc2s1 (centres unmarked) [N-dehydroxyzileuton]
  Type: Type of interaction: O

## O=C1CC(=O)N(c2ccccc2)c2cc(Cl)ccc2N1 [N-desmethylclobazam]
  Type: Type of interaction: B

## CCN1C(=O)C=CC1=O [N-ethylmaleimide]
[1]
  Type: Type of interaction: O

## C#CCOc1ccccc1CCCCCC(=O)NS(C)(=O)=O [N-methylsulfonyl-6-(2-propargyloxyphenyl)hexanamide]
[1]
  Type: Type of interaction: O

## COc1ccccc1N1CCN(CC(C(=O)NC(C)(C)C)c2ccccc2)CC1 (centres unmarked) [N-tert-butyl-3-[4-(2-methoxyphenyl)piperazin-1-yl]-2-phenylpropanamide]
  Type: Type of interaction: B

## CCCC(=O)[O-].[Na+] [NABU]
  Type: Type of interaction: O

## COc1ccccc1N1CCN(CCCCN2C(=O)c3ccccc3C2=O)CC1 [NAN-190 hydrobromide]
[1]
  Type: Type of interaction: B

## O=C1C[C@@H](c2ccc(O)cc2)Oc2cc(O)cc(O)c21 [NARIGENIN]
[1]
  Type: Type of interaction: O

## O=C(O)C[C@H](O)C[C@H](O)/C=C/c1c(C2CC2)nc2ccccc2c1-c1ccc(F)cc1 [NK 104]
[1]
  Type: Type of interaction: B

## CN[C@H](CC(=O)O)C(=O)O [NMDA]
  Type: Type of interaction: O

## CNC(=O)[C@@H](Cc1ccccc1)N(C)C(=O)[C@@H](Cc1ccc2ccccc2c1)N(C)C(=O)/C=C/CC(C)(C)N [NN 703]
[1]
  Type: Type of interaction: B

## O=c1c(-c2ccc(O)cc2)coc2cc(O)cc(O)c12 [NPI 031L]
[1]
  Type: Type of interaction: B

## CCN(CC)CCCC(C)Nc1nc(C)cc(Nc2ccc3nc(C)cc(N)c3c2)n1 (centres unmarked) [NSC 23766]
  Type: Type of interaction: B

## Nc1nc(OCC2CCCCC2)c2[nH]cnc2n1 [NU2058]
  Type: Type of interaction: B

## NS(=O)(=O)c1ccc(Nc2nc(OCC3CCCCC3)c3[nH]cnc3n2)cc1 [NU6102]
  Type: Type of interaction: B

## Nc1ncnc2c1c(-c1cccc(OCc3ccccc3)c1)cn2C1CC(CN2CCC2)C1 (centres unmarked) [NVP-AEW541]
  Type: Type of interaction: O

## c1ccc2ccccc2c1 [Naftalen]
[1]
  Type: Type of interaction: B

## C=CCN1CC[C@]23c4c5ccc(O)c4O[C@H]2C(=O)CC[C@@]3(O)[C@H]1C5 [Naloxone]
[1]
  Type: Type of interaction: O

## O=C1CC[C@@]2(O)[C@H]3Cc4ccc(O)c5c4[C@@]2(CCN3CC2CC2)[C@H]1O5 [Naltrexone]
[1]
  Type: Type of interaction: B

## c1ccc2c(CC3=NCCN3)cccc2c1 [Naphazoline]
[1]
  Type: Type of interaction: O

## CCc1nn(CCCN2CCN(c3cccc(Cl)c3)CC2)c(=O)n1CCOc1ccccc1 [Nefazodone]
[1]
  Type: Type of interaction: O

## Cc1c(O)cccc1C(=O)N[C@@H](CSc1ccccc1)[C@H](O)CN1C[C@H]2CCCC[C@H]2C[C@H]1C(=O)NC(C)(C)C [Nelfinavir]
[1]
  Type: Type of interaction: O

## NC[C@@H]1O[C@H](O[C@H]2[C@@H](O)[C@H](O[C@@H]3[C@@H](O)[C@H](N)C[C@H](N)[C@H]3O[C@H]3O[C@H](CN)[C@@H](O)[C@H](O)[C@H]3N)O[C@@H]2CO)[C@H](N)[C@@H](O)[C@@H]1O [Neomycin]
  Type: Type of interaction: B

## Cc1ccnc2c1NC(=O)c1cccnc1N2C1CC1 [Nevirapine]
[1]
  Type: Type of interaction: O

## NC(=O)c1cccnc1 [Niacinamide]
[1]
  Type: Type of interaction: B

## O=C(OCC(COC(=O)c1cccnc1)(COC(=O)c1cccnc1)COC(=O)c1cccnc1)c1cccnc1 [Niceritrol]
[1]
  Type: Type of interaction: O

## CO[C@@H]1C[C@@H](C[C@H]2CC[C@H](C)[C@H]([C@@H](C)C(=O)O)O2)O[C@]2(O[C@](C)([C@H]3CC[C@@](C)([C@@H]4O[C@@H]([C@H]5O[C@@](O)(CO)[C@H](C)C[C@@H]5C)C[C@@H]4C)O3)C[C@H]2C)[C@@H]1C [Nigericin]
[1]
  Type: Type of interaction: O

## COc1ccc(-c2cc(=O)c3c(OC)c(OC)c(OC)c(OC)c3o2)cc1OC [Nobiletin]
[1]
  Type: Type of interaction: O

## Oc1ccc2c3c1O[C@H]1c4[nH]c5c(c4C[C@@]4(O)[C@@H](C2)N(CC2CC2)CC[C@]314)C[C@@]1(O)[C@H]2Cc3ccc(O)c4c3[C@@]1(CCN2CC1CC1)[C@H]5O4 [Norbinaltorphimine]
  Type: Type of interaction: O

## CC(Cc1ccc(O)c(O)c1)C(C)Cc1ccc(O)c(O)c1 (centres unmarked) [Nordihydroguaiaretic Acid]
[1]
  Type: Type of interaction: B

## C#C[C@]1(O)CC[C@H]2[C@@H]3CCC4=CC(=O)CC[C@@H]4[C@H]3CC[C@@]21C [Norethindrone]
[1]
  Type: Type of interaction: O

## CN(C)CC1CCCCC1(O)c1cccc(O)c1 (centres unmarked) [O-demethyltramadol]
  Type: Type of interaction: O

## Oc1ccccc1OC(c1ccccc1)C1CNCCO1 (centres unmarked) [O-desethylreboxetine]
  Type: Type of interaction: B

## O=C(Nc1ccc(OC(F)(F)F)cc1)c1sccc1NCc1ccnc2ccccc12 [OSI 930]
[1]
  Type: Type of interaction: O

## NCC(=O)Nc1ccc(-n2nc(C(F)(F)F)cc2-c2ccc3c(ccc4ccccc43)c2)cc1 [OSU 03012]
[1]
  Type: Type of interaction: B

## C[C@@H](O)[C@@H]1NC(=O)[C@H](CCCCN)NC(=O)[C@@H](Cc2c[nH]c3ccccc23)NC(=O)[C@H](Cc2ccccc2)NC(=O)[C@@H](NC(=O)[C@H](N)Cc2ccccc2)CSSC[C@@H](C(=O)N[C@H](CO)[C@@H](C)O)NC1=O [Octreotide]
  Type: Type of interaction: B and O

## NCCO [Olamine]
[1]
  Type: Type of interaction: B

## C[Si](Cn1cncn1)(c1ccc(F)cc1)c1ccc(F)cc1 [Olymp]
  Type: Type of interaction: O

## Cc1nccn1CC1CCc2c(c3ccccc3n2C)C1=O (centres unmarked) [Ondansetron]
[1]
  Type: Type of interaction: O
